Measured values from patent US9334269B2, “Carboxamides as inhibitors of voltage-gated sodium channels” (AMGEN INC., priority 2010, dated 2016).

Target: T1, human Nav1.7 (hNav1.7) (Homo sapiens, UniProt Q15858)
T1 construct: expressed in transfected cells
Assay: hNav1.7 whole-cell patch-clamp electrophysiology (automated PatchXpress 7000A or manual) in stably expressing 293 cells
Format: cell-based
Method in brief: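 Stably transfected 293 cells lacking endogenous sodium channels; peak current evoked by depolarizing pulses during increasing compound concentrations, automated at ~20% fractional inactivation, or manually at −140 mV (resting) and ~20% inactivation. Block taken at steady state, corrected for rundown; IC50 by Hill fit.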

T1 sequence (Q15858 whole entry): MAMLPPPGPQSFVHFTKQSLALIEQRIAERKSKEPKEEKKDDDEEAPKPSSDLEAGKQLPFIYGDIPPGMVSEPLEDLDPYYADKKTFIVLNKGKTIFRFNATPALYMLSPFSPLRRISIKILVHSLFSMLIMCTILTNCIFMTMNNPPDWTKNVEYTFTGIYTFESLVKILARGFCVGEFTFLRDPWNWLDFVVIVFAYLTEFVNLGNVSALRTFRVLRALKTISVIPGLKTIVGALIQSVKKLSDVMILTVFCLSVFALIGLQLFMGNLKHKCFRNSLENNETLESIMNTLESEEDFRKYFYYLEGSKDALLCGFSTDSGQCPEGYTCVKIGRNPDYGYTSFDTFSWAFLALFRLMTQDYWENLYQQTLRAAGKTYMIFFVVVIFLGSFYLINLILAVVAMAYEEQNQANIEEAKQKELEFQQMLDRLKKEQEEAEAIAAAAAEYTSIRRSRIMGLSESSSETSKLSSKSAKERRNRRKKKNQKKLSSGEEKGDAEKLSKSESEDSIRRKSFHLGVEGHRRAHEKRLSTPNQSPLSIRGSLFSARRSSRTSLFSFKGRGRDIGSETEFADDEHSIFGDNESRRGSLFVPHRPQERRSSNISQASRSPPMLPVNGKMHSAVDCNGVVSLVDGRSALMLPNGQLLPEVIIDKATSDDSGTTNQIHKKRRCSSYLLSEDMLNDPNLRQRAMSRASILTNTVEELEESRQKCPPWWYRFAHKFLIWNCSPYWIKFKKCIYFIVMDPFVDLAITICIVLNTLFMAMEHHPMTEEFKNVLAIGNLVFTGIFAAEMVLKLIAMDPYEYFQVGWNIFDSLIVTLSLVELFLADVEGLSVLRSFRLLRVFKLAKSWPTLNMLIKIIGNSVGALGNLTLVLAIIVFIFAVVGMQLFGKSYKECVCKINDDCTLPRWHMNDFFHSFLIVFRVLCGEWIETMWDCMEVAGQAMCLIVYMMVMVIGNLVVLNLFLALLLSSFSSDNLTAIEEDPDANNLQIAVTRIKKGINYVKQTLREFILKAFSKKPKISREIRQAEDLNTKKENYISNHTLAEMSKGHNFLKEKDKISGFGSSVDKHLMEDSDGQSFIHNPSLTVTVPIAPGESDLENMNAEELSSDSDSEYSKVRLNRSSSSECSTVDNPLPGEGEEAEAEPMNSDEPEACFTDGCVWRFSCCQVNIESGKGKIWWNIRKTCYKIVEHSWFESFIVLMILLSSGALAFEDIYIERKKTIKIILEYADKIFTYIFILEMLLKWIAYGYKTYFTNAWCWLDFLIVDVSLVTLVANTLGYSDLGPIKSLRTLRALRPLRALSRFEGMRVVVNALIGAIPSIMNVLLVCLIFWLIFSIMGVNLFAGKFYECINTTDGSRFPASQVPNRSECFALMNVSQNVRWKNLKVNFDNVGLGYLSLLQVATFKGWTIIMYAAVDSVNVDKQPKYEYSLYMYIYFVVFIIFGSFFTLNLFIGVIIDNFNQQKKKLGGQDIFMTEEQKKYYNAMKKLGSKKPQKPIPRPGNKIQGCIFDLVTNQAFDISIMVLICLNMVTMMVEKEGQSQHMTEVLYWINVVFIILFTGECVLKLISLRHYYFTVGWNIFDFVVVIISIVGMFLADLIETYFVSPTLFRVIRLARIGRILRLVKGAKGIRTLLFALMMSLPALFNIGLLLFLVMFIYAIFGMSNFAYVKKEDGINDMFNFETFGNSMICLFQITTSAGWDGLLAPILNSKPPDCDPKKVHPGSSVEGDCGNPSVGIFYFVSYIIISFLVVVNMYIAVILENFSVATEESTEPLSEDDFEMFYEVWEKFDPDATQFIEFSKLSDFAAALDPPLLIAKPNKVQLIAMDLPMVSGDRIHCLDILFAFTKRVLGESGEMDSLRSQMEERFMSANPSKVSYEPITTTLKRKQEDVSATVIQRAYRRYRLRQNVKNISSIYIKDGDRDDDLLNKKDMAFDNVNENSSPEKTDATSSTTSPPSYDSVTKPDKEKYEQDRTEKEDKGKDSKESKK

Row | Structure (SMILES) | IC50 (average IC50, human Nav1.7) [µM] | IC50 (average IC50) [µM]
1 | CNC(=O)c1cccc(Nc2ncnc(N3CC(Oc4ccccc4-c4ccccc4)C3)n2)c1 [Example 217] | 8.66 | –
2 | CNC(=O)c1cccc(Nc2cc(N3CC(Oc4ccc(F)cc4)C3)ncn2)c1 [Example 218] | 8.68 | –
3 | CNC(=O)c1cc(Nc2ncnc(N3CC(Oc4ccc(Cl)cc4)C3)n2)ccc1O [Example 219] | 8.82 | –
4 | CNC(=O)c1cccc(Nc2ncnc(N3CCc4ccc(OC)cc4C3)n2)c1 [Example 220] | 8.85 | –
5 | NC(=O)c1cccc(Nc2ncnc(N3CCc4cc(Br)ccc4C3)n2)c1 [Example 221] | 8.9 | –
6 | CNC(=O)c1cccc(Nc2ncnc(N3CC(COc4ccc(OC)cc4)C3)n2)c1 [Example 223] | 9.19 | –
7 | CNC(=O)c1cccc(Nc2ncnc(N3CC(Oc4cc(Cl)cc(Cl)c4)C3)n2)c1 [Example 224] | 9.29 | –
8 | CNC(=O)c1cccc(Nc2ncnc(N3CCc4c(F)cccc4C3)n2)c1 [Example 225] | 9.31 | –
9 | Cc1ccc(N2CCN(c3ncnc(Nc4ccc(Cl)c(C(N)=O)c4)n3)CC2)cc1C [Example 227] | 9.36 | –
10 | CNC(=O)c1cccc(Nc2ncnc(N3CCC(OCc4ccc(F)c(F)c4)CC3)n2)c1 [Example 228] | 9.42 | –
11 | CNC(=O)c1cccc(Nc2ncnc(NCCCc3ccc(Cl)cc3)n2)c1 [Example 232] | 9.84 | –
12 | CNC(=O)c1cccc(Nc2ncnc(N3CCc4cc(OCCOC)ccc4C3)n2)c1 [Example 233] | 9.87 | –
13 | CNC(=O)c1cccc(Nc2ncnc(N3CC(COc4ccc5ccccc5c4)C3)n2)c1 [Example 234] | 10 | –
14 | NC(=O)c1cccc(Nc2ncnc(N3CCc4ccccc4C3)n2)c1 [Example 235] | 10.3 | –
15 | NC(=O)c1cccc(Nc2ncnc(N3CC(Oc4ccc(F)cc4)C3)n2)c1 [Example 237] | 10.7 | –
16 | CNC(=O)c1cccc(Nc2ncnc(N3CCC(Oc4ccccc4F)CC3)n2)c1 [Example 238] | 10.8 | –
17 | CNC(=O)c1cccc(Nc2ncnc(N3CCC(OCc4cccc(C(F)(F)F)c4)CC3)n2)c1 [Example 239] | 10.8 | –
18 | CN(C)C(=O)c1cccc(Nc2ncnc(N3CCC(OCc4ccc(OC(F)(F)F)cc4)CC3)n2)c1 [Example 240] | 11.1 | –
19 | CNC(=O)c1cccc(Nc2ncnc(N3CC(COCc4ccc(Cl)cc4)C3)n2)c1 [Example 241] | 11.1 | –
20 | CNC(=O)c1cccc(Nc2ncnc(N3CC(COc4cccc(F)c4)C3)n2)c1 [Example 242] | 11.2 | –
21 | CNC(=O)c1cccc(Nc2ncnc(N3CC(COc4cccc(OC)c4)C3)n2)c1 [Example 244] | 12 | –
22 | CNC(=O)c1cccc(Nc2ncnc(N3CCC(C#N)(c4ccc(F)cc4)CC3)n2)c1 [Example 245] | 12.5 | –
23 | CCCc1noc(C2CCN(c3ncnc(Nc4cccc(C(=O)NC)c4)n3)CC2)n1 [Example 246] | 12.7 | –
24 | CNC(=O)c1cccc(Nc2ncnc(N3CCC(c4ccc(Cl)cc4)CC3)n2)c1 [Example 249] | 13.1 | –

Row | Structure (SMILES) | IC50 (average IC50, human Nav1.7) [µM] | IC50 (average IC50) [µM]
25 | CNC(=O)c1cccc(Nc2ncnc(N3CCC(Sc4ccc(C)cc4)CC3)n2)c1 [Example 250] | 13.1 | –
26 | CNC(=O)c1cccc(Nc2ncnc(N3CCc4c(cccc4OCCOC)C3)n2)c1 [Example 252] | 15 | –
27 | CNC(=O)c1cccc(Nc2ncnc(N3CC(COc4cccc5ccccc45)C3)n2)c1 [Example 253] | 15.2 | –
28 | CNC(=O)c1cccc(Nc2ncnc(N3CC(COc4ccc(Cl)c5cccnc45)C3)n2)c1 [Example 255] | 16 | –
29 | CNC(=O)c1cccc(Nc2ncnc(N3CC(COc4ccc(C#N)cc4)C3)n2)c1 [Example 258] | 16.9 | –
30 | CNC(=O)c1cccc(Nc2ncnc(NCCCOc3cccc(F)c3)n2)c1 [Example 260] | 17.6 | –
31 | CNC(=O)c1cccc(Nc2ncnc(N3CC(C)(Oc4ccccc4)C3)n2)c1 [Example 263] | – | 18.1
32 | CNC(=O)c1cccc(Nc2ncnc(N3CC(Oc4ccc(C5CCCC5)cc4)C3)n2)c1 [Example 264] | – | 18.9
33 | CNC(=O)c1cc(Nc2ncnc(N3CC(Oc4ccc(F)cc4)C3)n2)ccc1C [Example 266] | – | 19.7
34 | Cc1c(Nc2ncnc(N3CCC(OCc4ccc(OC(F)(F)F)cc4)CC3)n2)cccc1C(N)=O [Example 267] | – | 20.9
35 | CNC(=O)c1cccc(Nc2ncnc(N3CCc4c(cnn4-c4ccccc4)C3)n2)c1 [Example 268] | – | 20.9
36 | CNC(=O)c1cccc(Nc2ncnc(N3CCN(c4ccc(F)c(Cl)c4)CC3)n2)c1 [Example 271] | – | 21.4
37 | CNC(=O)c1cccc(Nc2ncnc(N3CC(C)(COc4ccccc4)C3)n2)c1 [Example 273] | – | 22.1
38 | CNC(=O)c1cccc(Nc2ncnc(N3CC(Oc4c(F)cccc4F)C3)n2)c1 [Example 274] | – | 22.1
39 | CNC(=O)c1cccc(Nc2ncnc(N3CCc4cc(OCC(F)(F)F)ccc4C3)n2)c1C [Example 275] | – | 22.6
40 | CNC(=O)c1cccc(Nc2ncnc(N3CCCC(Oc4cccc(Cl)c4)C3)n2)c1 (centres unmarked) [Example 278] | – | 26
41 | CNC(=O)c1cccc(Nc2ncnc(N3CCc4ccc(Cl)cc4C3)n2)c1 [Example 279] | – | 26.4
42 | CNC(=O)c1cccc(Nc2ncnc(N3CCc4cccc(OC)c4C3)n2)c1 [Example 281] | – | 27.9
43 | CNC(=O)c1cc(F)cc(Nc2ncnc(NCCCOc3ccc(OC(F)(F)F)cc3)n2)c1 [Example 282] | – | > 30
44 | CNC(=O)c1ccc(OC)c(Nc2ncnc(N3CC(Oc4ccc(Cl)cc4)C3)n2)c1 [Example 283] | – | > 30
45 | CNC(=O)c1cccc(Nc2ncc(F)c(N3CC(Oc4ccc(F)cc4)C3)n2)c1 [Example 285] | – | > 30
46 | CNC(=O)c1cccc(Nc2ncnc(NCCc3nnc(-c4ccc(C)s4)o3)n2)c1 [Example 287] | – | > 30
47 | CNC(=O)c1cccc(Nc2ncnc(NCc3noc(C(=O)NC4CC4)n3)n2)c1 [Example 289] | – | > 30

Other lines, results leading:

Row | IC50 (average IC50, human Nav1.7) [µM] | IC50 (average IC50) [µM] | Structure (SMILES)
48 | 8.96 | – | CNC(=O)c1cccc(Nc2ncnc(N3CCc4cc(OC)ccc4C3)n2)c1 [Example 222]
49 | 9.35 | – | CNC(=O)c1cccc(Nc2ncnc(N3CC(Oc4ccc(F)c(F)c4F)C3)n2)c1 [Example 226]
50 | 9.44 | – | CNC(=O)c1cccc(Nc2ncnc(N3CC(COc4ccccc4OC(F)(F)F)C3)n2)c1 [Example 229]
51 | 9.5 | – | CNC(=O)c1cccc(Nc2ncnc(N3CCC(Cc4ccccc4)CC3)n2)c1 [Example 230]
52 | 9.66 | – | CNC(=O)c1cccc(Nc2ncnc(N3CCC(c4nc(C(C)C)no4)CC3)n2)c1 [Example 231]
53 | 10.4 | – | CNC(=O)c1cccc(Nc2ncnc(NCCOc3ccc(Cl)cc3)n2)c1 [Example 236]
54 | 11.5 | – | CNC(=O)c1cccc(Nc2ncnc(N3CCc4ccccc4C3)n2)c1 [Example 243]
55 | 12.8 | – | CNC(=O)c1cccc(Nc2ncnc(N3CC(COc4ccccc4Cl)C3)n2)c1 [Example 247]
56 | 12.9 | – | CNC(=O)c1cccc(Nc2ncnc(N3CCC(c4ccc(C#N)c(OC(F)(F)F)c4)CC3)n2)c1 [Example 248]
57 | 13.8 | – | CNC(=O)c1cccc(Nc2ncnc(N3CC(COc4ccccc4F)C3)n2)c1 [Example 251]
58 | 15.7 | – | CNC(=O)c1cccc(Nc2ncnc(NCc3nc(-c4ccccc4)no3)n2)c1 [Example 254]
59 | 16.7 | – | CNC(=O)c1cccc(Nc2ncnc(N3CC(Oc4cccc(C(F)(F)F)c4F)C3)n2)c1 [Example 256]
60 | 16.9 | – | CNC(=O)c1cccc(Nc2ncnc(N3CCC(Nc4ccccc4)CC3)n2)c1 [Example 257]
61 | 17.1 | – | CNC(=O)c1cccc(Nc2ncnc(N3CCC4(CC3)OCc3ccccc34)n2)c1 [Example 259]
62 | 17.7 | – | CNC(=O)c1cccc(Nc2ncnc(N3CCC(COCC4CC4)CC3)n2)c1 [Example 261]
63 | 17.8 | – | CNC(=O)c1cc(Cl)cc(Nc2ncnc(N3CC(Oc4ccc(F)cc4)C3)n2)c1 [Example 262]
64 | – | 19.2 | CNC(=O)c1cccc(Nc2ncnc(N3CCc4oc(-c5ccccc5)cc4C3)n2)c1 [Example 265]
65 | – | 21 | CNC(=O)c1cccc(Nc2ncnc(N3CCc4cccc(C(F)(F)F)c4C3)n2)c1 [Example 269]
66 | – | 21.1 | CNC(=O)c1cccc(Nc2ncnc(N3CC(Oc4ccc(F)cc4)C3)n2)c1F [Example 270]
67 | – | 21.7 | CNC(=O)c1cccc(Nc2ncnc(N3CC(OCc4ccc(F)cc4)C3)n2)c1 [Example 272]
68 | – | 23.6 | CNC(=O)c1cccc(Nc2ncnc(N3CC(COc4ccccc4C(F)(F)F)C3)n2)c1 [Example 276]
69 | – | 25.4 | CNC(=O)c1cccc(Nc2ncnc(N3CCC(OCc4cccc(OC(F)(F)F)c4)CC3)n2)c1 [Example 277]
70 | – | 27.7 | CNC(=O)c1cccc(Nc2ncnc(N(C)Cc3nc(-c4ccccc4)no3)n2)c1 [Example 280]
71 | – | > 30 | CNC(=O)c1cccc(Nc2nc(C)nc(N3CC(Oc4ccc(F)cc4)C3)n2)c1 [Example 284]
72 | – | > 30 | CNC(=O)c1cccc(Nc2ncnc(NCc3cn4cc(C)ccc4n3)n2)c1 [Example 286]
73 | – | > 30 | CNC(=O)c1cccc(Nc2ncnc(NCCc3nc4cc(Cl)ccc4[nH]3)n2)c1 [Example 288]
74 | – | > 30 | CCN1C(=O)C2(CCN(c3ncnc(Nc4cccc(C(=O)NC)c4)n3)CC2)c2ccccc21 [Example 290]
